How the values were obtained:
[1] = Metabolic stability assessed as half life in human liver microsomes; type: ADME, Microsome
Plasmodium falciparum [2] = test: microbe, parasite or virus in culture; conditions: W2
Description: Antimalarial activity against Plasmodium falciparum W2

Plasmodium berghei [3] = test: Antimalarial activity against Plasmodium berghei KBG173 infected CD1 mice (Mus musculus) at 320 mg/kg/day peroral dose as survival time after 3-5 days; type: functional; conditions: route oral
Plasmodium falciparum [4] = test: microbe, parasite or virus in culture; conditions: TM91C235
Description: Antimalarial activity against multidrug-resistant Plasmodium falciparum TM91C235

Plasmodium berghei [5] = test: Antimalarial activity against Plasmodium berghei KBG173 infected CD1 mice (Mus musculus) at 20 mg/kg/day peroral dose as survival time after 3-5 days; type: functional; conditions: route oral
Plasmodium falciparum [6] = test: microbe, parasite or virus in culture; conditions: D6
Description: Antimalarial activity against Plasmodium falciparum D6

[7] = Metabolic stability assessed as half life in mouse liver microsomes; type: ADME, Microsome
Plasmodium berghei [8] = test: Antimalarial activity against Plasmodium berghei KBG173 infected CD1 mice (Mus musculus) at 80 mg/kg/day peroral dose as survival time after 3-5 days; type: functional; conditions: route oral
PC-3 = test: Antiproliferative activity against human PC3 cells after 48 hrs; type: functional; conditions: PC-3, 48 h
DU-145 = test: Antiproliferative activity against human DU145 cells after 48 hrs; type: functional; conditions: DU-145, 48 h
SK-MEL-2 = test: Antiproliferative activity against human SKMEL2 cells after 48 hrs; type: functional; conditions: SK-MEL-2, 48 h
NCI-H460 = test: Antiproliferative activity against human NCI-H460 cells after 48 hrs; type: functional; conditions: NCI-H460, 48 h
U-251 = test: Antiproliferative activity against human U251 cells after 48 hrs; type: functional; conditions: U-251, 48 h
SF-539 = test: Antiproliferative activity against human SF539 cells after 48 hrs; type: functional; conditions: SF-539, 48 h
EKVX = test: Antiproliferative activity against human EKVX cells after 48 hrs; type: functional
SF-295 = test: Antiproliferative activity against human SF295 cells after 48 hrs; type: functional; conditions: SF-295, 48 h
[9] = Antiproliferative activity against human HL60(TB) cells after 48 hrs; type: functional, HL-60(TB); conditions: HL-60, 48 h
SR = test: Antiproliferative activity against human SR cells after 48 hrs; type: functional
LOX IMVI = test: Antiproliferative activity against human LOXIMVI cells after 48 hrs; type: functional
NCI/ADR-RES = test: Antiproliferative activity against human NCI/ADR-RES cells after 48 hrs; type: functional
T47D = test: Antiproliferative activity against human T47D cells after 48 hrs; type: functional
HOP-92 = test: Antiproliferative activity against human HOP92 cells after 48 hrs; type: functional; conditions: HOP-92, 48 h
786-0 = test: Antiproliferative activity against human 786-0 cells after 48 hrs; type: functional; conditions: 786-0, 48 h
CCRF-CEM = test: Antiproliferative activity against human CCRF-CEM cells after 48 hrs; type: functional
MOLT-4 = test: Antiproliferative activity against human MOLT4 cells after 48 hrs; type: functional; conditions: MOLT-4, 48 h
UO-31 = test: Antiproliferative activity against human UO31 cells after 48 hrs; type: functional; conditions: UO-31, 48 h
IGROV-1 = test: Antiproliferative activity against human IGROV1 cells after 48 hrs; type: functional; conditions: IGROV-1, 48 h
[10] = read-out: LC50 (the source's name)

Q: With `CN(C)CCNC(=O)C1CCC2(CC1)OOC1(CCCCC1)OO2` as the molecule, how does the half-life [1] read?
A: > 60 min

Q: And the IC50 (Plasmodium falciparum [2])?
A: 9.72 nM

Q: What about the IC90 (Plasmodium falciparum [2]) of the same molecule?
A: 17.9 nM

Q: And the Survival (Plasmodium berghei [3])?
A: 17.4 days

Q: And the IC50 (Plasmodium falciparum [4])?
A: 7.24 nM

Q: And the IC90 (Plasmodium falciparum [4])?
A: 12.8 nM

Q: And the Survival (Plasmodium berghei [5])?
A: 7.2 days

Q: What about the IC50 (Plasmodium falciparum [6]) of the same molecule?
A: 11.2 nM

Q: And the IC90 (Plasmodium falciparum [6])?
A: 15.1 nM

Q: And the half-life [7]?
A: > 60 min

Q: And the Survival (Plasmodium berghei [8])?
A: 7.6 days

Q: What does the source list for `CC(=O)O[C@H]1C[C@H]2[C@@H]([C@H](OC(C)=O)C[C@@H]3CC4(CC[C@@]32C)OOC2(CCCCC2)OO4)[C@@H]2CC[C@H]([C@H](C)CCCN=[N+]=[N-])[C@@]12C`?
A: IC50 (Plasmodium falciparum [2]): 6.3 nM; IC90 (Plasmodium falciparum [2]): 21.6 nM; IC50 (Plasmodium falciparum [4]): 13.9 nM; IC90 (Plasmodium falciparum [4]): 20.6 nM; IC50 (Plasmodium falciparum [6]): 8.6 nM; IC90 (Plasmodium falciparum [6]): 13.3 nM

Q: Which IC50 (Plasmodium falciparum [2]) does the source give for `COC(=O)C1CCC2(CC1)OOC1(CCCCC1)OO2` here?
A: 40.4 nM

Q: What about the IC90 (Plasmodium falciparum [2]) of the same molecule?
A: 62.5 nM

Q: What about the IC50 (Plasmodium falciparum [4]) of the same molecule?
A: 27 nM

Q: And the IC90 (Plasmodium falciparum [4])?
A: 110 nM

Q: And the IC50 (Plasmodium falciparum [6])?
A: 29.2 nM

Q: And the IC90 (Plasmodium falciparum [6])?
A: 83.9 nM

Q: What does the source list for `O=C(O)C1CCC2(CC1)OOC1(CCCCC1)OO2`?
A: IC50 (Plasmodium falciparum [2]): 413 nM; IC90 (Plasmodium falciparum [2]): 520 nM; IC50 (Plasmodium falciparum [4]): 411 nM; IC90 (Plasmodium falciparum [4]): 523 nM; IC50 (Plasmodium falciparum [6]): 429 nM; IC90 (Plasmodium falciparum [6]): 467 nM

Q: For `COC(=O)CC[C@@H](C)[C@H]1CC[C@H]2[C@@H]3[C@H](OC(C)=O)C[C@@H]4CC5(CC[C@]4(C)[C@H]3C[C@H](OC(C)=O)[C@]12C)OOC1(CCCCC1)OO5`, which IC50 (Plasmodium falciparum [2]) is on record?
A: 17 nM

Q: What about the IC50 (Plasmodium falciparum [6]) of the same molecule?
A: 21.5 nM

Q: Which GI50 (PC-3) does the source give for `C[C@H](CCCO)[C@H]1CC[C@H]2[C@@H]3[C@H](O)C[C@@H]4CC5(CC[C@]4(C)[C@H]3C[C@H](O)[C@]12C)OOC1(CCCCC1)OO5` here?
A: 290 nM

Q: What about the TGI (PC-3) of the same molecule?
A: 990 nM

Q: And the CC50 (PC-3; [10])?
A: 3.41 µM

Q: What about the IC50 (Plasmodium falciparum [2]) of the same molecule?
A: 109 nM

Q: What about the IC90 (Plasmodium falciparum [2]) of the same molecule?
A: 298 nM

Q: And the GI50 (DU-145)?
A: 110 nM

Q: What about the TGI (DU-145) of the same molecule?
A: 230 nM

Q: And the CC50 (DU-145; [10])?
A: 480 nM

Q: And the GI50 (SK-MEL-2)?
A: 200 nM

Q: What about the TGI (SK-MEL-2) of the same molecule?
A: 390 nM

Q: And the CC50 (SK-MEL-2; [10])?
A: 730 nM

Q: And the GI50 (NCI-H460)?
A: 240 nM

Q: And the TGI (NCI-H460)?
A: 620 nM

Q: And the CC50 (NCI-H460; [10])?
A: 2680 nM

Q: And the GI50 (U-251)?
A: 210 nM

Q: What about the TGI (U-251) of the same molecule?
A: 460 nM

Q: What about the CC50 (U-251; [10]) of the same molecule?
A: 980 nM

Q: What about the GI50 (SF-539) of the same molecule?
A: 170 nM

Q: What about the TGI (SF-539) of the same molecule?
A: 320 nM

Q: What about the CC50 (SF-539; [10]) of the same molecule?
A: 590 nM

Q: And the GI50 (EKVX)?
A: 140 nM

Q: And the TGI (EKVX)?
A: 310 nM

Q: And the CC50 (EKVX; [10])?
A: 650 nM

Q: And the IC50 (Plasmodium falciparum [4])?
A: 166 nM

Q: And the IC90 (Plasmodium falciparum [4])?
A: 340 nM

Q: What about the GI50 (SF-295) of the same molecule?
A: 170 nM

Q: What about the TGI (SF-295) of the same molecule?
A: 330 nM

Q: And the CC50 (SF-295; [10])?
A: 660 nM

Q: And the GI50 [9]?
A: 150 nM

Q: And the TGI [9]?
A: 310 nM

Q: And the CC50 [9, 10]?
A: 620 nM

Q: What about the IC50 (Plasmodium falciparum [6]) of the same molecule?
A: 130 nM

Q: What about the IC90 (Plasmodium falciparum [6]) of the same molecule?
A: 623 nM

Q: What about the GI50 (SR) of the same molecule?
A: 160 nM

Q: And the TGI (SR)?
A: 340 nM

Q: And the CC50 (SR; [10])?
A: 720 nM

Q: What about the GI50 (LOX IMVI) of the same molecule?
A: 20 nM

Q: And the TGI (LOX IMVI)?
A: 30 nM

Q: And the CC50 (LOX IMVI; [10])?
A: 60 nM

Q: And the GI50 (NCI/ADR-RES)?
A: 250 nM

Q: What about the TGI (NCI/ADR-RES) of the same molecule?
A: 590 nM

Q: What about the CC50 (NCI/ADR-RES; [10]) of the same molecule?
A: 4.27 µM

Q: And the GI50 (T47D)?
A: 330 nM

Q: And the TGI (T47D)?
A: 930 nM

Q: What about the CC50 (T47D; [10]) of the same molecule?
A: 5.3 µM

Q: And the GI50 (HOP-92)?
A: 140 nM

Q: What about the TGI (HOP-92) of the same molecule?
A: 320 nM

Q: And the CC50 (HOP-92; [10])?
A: 730 nM

Q: And the GI50 (786-0)?
A: 230 nM

Q: What about the TGI (786-0) of the same molecule?
A: 540 nM

Q: What about the CC50 (786-0; [10]) of the same molecule?
A: 2010 nM

Q: And the GI50 (CCRF-CEM)?
A: 100 nM

Q: And the TGI (CCRF-CEM)?
A: 240 nM

Q: And the CC50 (CCRF-CEM; [10])?
A: 560 nM

Q: And the GI50 (MOLT-4)?
A: 180 nM

Q: What about the TGI (MOLT-4) of the same molecule?
A: 410 nM

Q: And the CC50 (MOLT-4; [10])?
A: 960 nM

Q: What about the GI50 (UO-31) of the same molecule?
A: 40 nM

Q: What about the TGI (UO-31) of the same molecule?
A: 170 nM

Q: And the CC50 (UO-31; [10])?
A: 610 nM

Q: And the GI50 (IGROV-1)?
A: < 10 nM

Q: And the TGI (IGROV-1)?
A: 10 nM

Q: And the CC50 (IGROV-1; [10])?
A: 60 nM

Q: For `CC(=O)OCCC[C@@H](C)[C@H]1CC[C@H]2[C@@H]3[C@H](OC(C)=O)C[C@@H]4CC5(CC[C@]4(C)[C@H]3C[C@H](OC(C)=O)[C@]12C)OOC1(CCCCC1)OO5`, which IC50 (Plasmodium falciparum [2]) is on record?
A: 11.6 nM

Q: And the IC90 (Plasmodium falciparum [2])?
A: 26.3 nM

Q: And the IC50 (Plasmodium falciparum [4])?
A: 19.2 nM

Q: And the IC90 (Plasmodium falciparum [4])?
A: 29.3 nM

Q: And the IC50 (Plasmodium falciparum [6])?
A: 15.9 nM

Q: What about the IC90 (Plasmodium falciparum [6]) of the same molecule?
A: 28.4 nM

Q: For `NC(=O)C1CCC2(CC1)OOC1(CCCCC1)OO2`, which IC50 (Plasmodium falciparum [2]) is on record?
A: 20.2 nM

Q: And the IC90 (Plasmodium falciparum [2])?
A: 40.4 nM

Q: What about the IC50 (Plasmodium falciparum [4]) of the same molecule?
A: 27.2 nM

Q: What about the IC90 (Plasmodium falciparum [4]) of the same molecule?
A: 55.6 nM

Q: What about the IC50 (Plasmodium falciparum [6]) of the same molecule?
A: 24 nM

Q: And the IC90 (Plasmodium falciparum [6])?
A: 42.8 nM

Q: With `C[C@@H]1CC[C@H]2[C@@H](C)C(=O)O[C@@H]3O[C@@]4(C)CC[C@@H]1[C@]32OO4` [ARTEMISININ] as the molecule, how does the IC50 (Plasmodium falciparum [2]) read?
A: 6.7 nM

Q: And the IC90 (Plasmodium falciparum [2])?
A: 11.5 nM

Q: And the IC50 (Plasmodium falciparum [4])?
A: 13 nM

Q: What about the IC90 (Plasmodium falciparum [4]) of the same molecule?
A: 17.4 nM

Q: What about the IC50 (Plasmodium falciparum [6]) of the same molecule?
A: 9 nM

Q: And the IC90 (Plasmodium falciparum [6])?
A: 12.8 nM

Q: What does the source list for `CCN(CC)CCCC(C)Nc1ccnc2cc(Cl)ccc12` (stereo not given) [CHLOROQUINE]?
A: IC90 (Plasmodium falciparum [2]): 1020 nM; IC90 (Plasmodium falciparum [4]): 345 nM; IC90 (Plasmodium falciparum [6]): 17.6 nM

Q: Which IC90 (Plasmodium falciparum [2]) does the source give for `O[C@@H](c1cc(C(F)(F)F)nc2c(C(F)(F)F)cccc12)[C@H]1CCCCN1` [MEFLOQUINE] here?
A: 9.45 nM

Q: And the IC50 (Plasmodium falciparum [4])?
A: 22.4 nM

Q: And the IC90 (Plasmodium falciparum [4])?
A: 50.1 nM

Q: And the IC50 (Plasmodium falciparum [6])?
A: 7.34 nM

Q: And the IC90 (Plasmodium falciparum [6])?
A: 19.5 nM

Source: ChEMBL document CHEMBL1142398, “Chemical stability of the peroxide bond enables diversified synthesis of potent tetraoxane antimalarials” (J Med Chem, 2008)
